Measurements: PMC13349481 (ACS chemical biology, 2025)

Test system: P-glycoprotein (Pgp, MDR1)
Test: MDCKII-MDR1 permeability and Pgp efflux
Format: in vitro ADME
Conditions: dog

## COCCc1ccc(OCC(O)CNC(C)C)cc1 (centres unmarked) [metoprolol]
MDCK-MDR1
  Papp A→B: 28.6 ×10⁻⁶ cm/s
  Papp B→A: 28 ×10⁻⁶ cm/s
  efflux ratio: 0.98
MDCK-MDR1, recovery (%) A-B, MDCKII-MDR1, A-B
  recovery: 109%
MDCK-MDR1, recovery (%) B-A, MDCKII-MDR1, B-A
  recovery: 97.4%
